This is an account of results in publication PMC12867150, “A fungi-derived cyclic peptide enhances Th9-mediated antitumor immunity by targeting ZAP70 and SREBP1” (The Journal of Clinical Investigation, 2025).

Where “and” joins values, the source holds several entries; their conditions need not be identical. Equal values may be shown once.

Assay [1] relates to Th9 cells. Put plainly: IL-9+ Th9 cells transduced with MIGR1 or SREBP1 vector (S8K-L). Format: cell-based, mouse. The following applies: for IL-9 gate number: representative flow plot, Figure S8K; for IL-9 expression of Th9 cells: Supplemental Figure 8L. As for the experimental part:
For murine T cell transduction, MIGR1-based retroviral vector encoding Srebf1 was used. HEK293T cells were transfected with these constructs using Lipofectamine 3000 (Thermo Fisher Scientific) to produce viral particles. Supernatants were collected between 48 and 72 hours after transfection, filtered through a 0.45 μm membrane, and stored at –80°C. Naive murine CD4^+ T cells were activated with plate-bound anti-CD3 (2 μg/mL, clone 17A2, BioXCell) and soluble anti-CD28 (1 μg/mL, clone 37.51, BioXCell) stimulation in the presence of subset-specific polarizing cytokines and then transduced with viral supernatant supplemented with polybrene (10 μg/mL). […]
Ctrl MIGR1EpACtrl SREBP1EpA
Figure S8. […]
(K and L) Flow-cytometric analysis of IL-9 expression in Th9 cells transduced with either control (MIGR1) or SREBP1- […]
overexpressing vectors, with or without EpA treatment, showing representative plots (K) and quantification of IL-9⁺ cells (L) (n = 3). […]
(n = 3). Statistical analysis was performed using one-way ANOVA followed by Tukey’s post hoc test (G and H, J, L, N). ns, not significant. Repeated data are presented as mean ± SEM. *p < 0.05, **p < 0.01, ***p < 0.001, ****p < 0.0001.

Assay [2] deals with TNF-α in human Th9 cells. Put plainly: Flow cytometry of TNF-α in human Th9 cells (Figure 8G). Format: cell-based. The method, then: For Th9 polarization, cultures were supplemented with IL-4 (10 ng/mL, PeproTech, catalog AF-200-04), TGF-β (1 ng/mL), and neutralizing anti–IFN-γ monoclonal antibody (10 μg/mL, clone B27, BioXcell, catalog BE0245). After 3 days of initial culture, cells were either collected for downstream assays or continued in extended culture with refreshed cytokines to maintain lineage commitment without antibodies. Th9 cells were collected at days 4, 5, and 6 for subsequent in vitro assays. For adoptive transfer studies, day 4–cultured Th9 cells were washed and prepared for intravenous injection.
Details regarding staining panels (human and mouse), reagents (including clones and catalog numbers), acquisition settings, compensation/controls, and analysis procedures are provided in Supplemental Methods.
MH9A4, Biolegend, Cat. No. 507605, PE/Cy7, clone MH9A4, Biolegend, Cat. No. […]
clone Mab11, Biolegend, Cat. No. 502908), Perforin (APC, clone dG9, Biolegend, Cat.
Flow cytometric acquisition was performed using a BD Fortessa or Cytek Aurora cytometer. Data were analyzed with FlowJo software (v10.8.1 or newer). Fluorescence compensation, isotype-matched controls, and fluorescence-minus-one (FMO) controls were applied as appropriate for multicolor panel validation.
Cells were washed twice with PBS and lysed in 1 × lysis buffer (NCM, Cat. No. […]
A general note: In flow cytometry, cells or beads pass a laser one at a time.

As for anteiso-C15 Leu7 surfactin [EpA], the values for the IL-9 gate number in assay [1] (MIGR1 control vector) and in assay [1] (SREBP1-overexpressing vector) were 69.8 and 50.3, respectively. Further, the “IL-9 expression of Th9 cells” value in assay [1] (MigR1, replicate 1) came out at 69.8; in assay [1] (MigR1, replicate 2), 68.8; in assay [1] (MigR1, replicate 3) it was 68.6; in assay [1] (SREBP1, replicate 1), 50.3; in assay [1] (SREBP1, replicate 2) it was 48.8; in assay [1] (SREBP1, replicate 3), 60.7. In addition, in assay [1] (result in words), the “EpA-induced IL-9 increase (protein) upon SREBP1 overexpression” value was “markedly suppressed”. In addition, the “TNF-α production in human CD4⁺ T cells (flow cytometric analysis)” value in assay [2] (Figure 8G, Th9-polarizing conditions, individual replicates, one per column (n = 4)) is 321000 and 314000 and 322000 and 302000. Further, the “TNF-α expression, human Th9” value in assay [2] (result in words) is on record as “higher TNF-α expression”.
